From PubChem BioAssay AID330 (DTP/NCI, 2004)
“And” between values parts separate entries of the source, which are not always exact repeats. Equal values may be shown once. Inconclusive results and toxic doses are left out.

Test system: P388 leukemia ip, CD2F1 mice, survival T/C
Assay: NCI In Vivo Anticancer Drug Screen. Data for tumor model P388 Leukemia (intraperitoneal) in CD2F1 (CDF1) mice
Conditions: endpoint: median survival time, higher = longer survival
In short: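 Mice carrying the transplanted tumor received test compound or vehicle. Survival was recorded in each group, and the value is the treated-group measurement divided by that of the vehicle-treated control group.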

[1] = dose: 50.0 mg/kg/injection, schedule: Q01DX005 (ip), vehicle: Klucel (hydroxypropylcellulose) (HPC)
[2] = dose: 100.0 mg/kg/injection, schedule: Q01DX005 (ip), vehicle: Klucel (hydroxypropylcellulose) (HPC)
[3] = dose: 200.0 mg/kg/injection, schedule: Q01DX005 (ip), vehicle: Klucel (hydroxypropylcellulose) (HPC)

Structure (SMILES): CC(=O)OC1(C)CC(C)C(=O)C(C(O)CC2CC(=O)NC(=O)C2)C1 (configuration not stated)
- T/C (dose: 130.0 micrograms/kg/injection, schedule: Q01DX009 (ip), vehicle: saline): 111 % of control
- T/C (dose: 1300.0 micrograms/kg/injection, schedule: Q04DX003 (ip), vehicle: saline): 120 % of control
- T/C (dose: 2160.0 micrograms/kg/injection, schedule: Q04DX003 (ip), vehicle: saline): 113 % of control
- T/C (dose: 3600.0 micrograms/kg/injection, schedule: Q04DX003 (ip), vehicle: saline): 113 % of control and 119 % of control
- T/C (dose: 6000.0 micrograms/kg/injection, schedule: Q04DX003 (ip), vehicle: saline): 118 % of control

Structure (SMILES): COC(=O)CCCCCCCCCCCCCCCCCCCCCCCCCCCCCCCCC(=O)OC
- T/C (dose: 25.0 mg/kg/injection, schedule: Q01DX001 (ip), vehicle: Klucel (hydroxypropylcellulose) (HPC)): 88 % of control
- T/C (dose: 50.0 mg/kg/injection, schedule: Q01DX001 (ip), vehicle: Klucel (hydroxypropylcellulose) (HPC)): 88 % of control
- T/C (dose: 100.0 mg/kg/injection, schedule: Q01DX001 (ip), vehicle: Klucel (hydroxypropylcellulose) (HPC)): 87 % of control

Structure (SMILES): CCCC(=O)NNCN1C(=O)c2ccccc2C1=O
- T/C [1]: 89 % of control
- T/C [2]: 86 % of control
- T/C [3]: 93 % of control

Structure (SMILES): CCC(C)C1NC(=O)C(NC(=O)c2c3[nH]c4c(C(=O)NC5C(=O)NC(C(C)CC)C(=O)N6CCCC6C(=O)N(C)CC(=O)N(C)C(C(C)C)C(=O)OC5C)ccc(C)c4oc-3c(C)c(=O)c2=O)C(C)OC(=O)C(C(C)C)N(C)C(=O)CN(C)C(=O)C2CCCN2C1=O (configuration not stated)
- T/C (dose: 0.05 mg/kg/injection, schedule: Q01DX009 (ip), vehicle: water): 99 % of control
- T/C (dose: 0.1 mg/kg/injection, schedule: Q01DX009 (ip), vehicle: water): 104 % of control
- T/C (dose: 0.2 mg/kg/injection, schedule: Q01DX009 (ip), vehicle: water): 95 % of control
- T/C (dose: 0.4 mg/kg/injection, schedule: Q01DX009 (ip), vehicle: water): 100 % of control and 104 % of control
- T/C (dose: 0.8 mg/kg/injection, schedule: Q01DX009 (ip), vehicle: water): 101 % of control and 96 % of control
- T/C (dose: 1.6 mg/kg/injection, schedule: Q01DX009 (ip), vehicle: water): 102 % of control and 110 % of control
- T/C (dose: 3.2 mg/kg/injection, schedule: Q01DX009 (ip), vehicle: water): 110 % of control
- T/C (dose: 6.4 mg/kg/injection, schedule: Q01DX009 (ip), vehicle: water): 123 % of control

Structure (SMILES): Oc1ccc(Cl)cc1C1c2ccccc2Oc2ccccc21
- T/C (dose: 50.0 mg/kg/injection, schedule: Q01DX009 (ip), vehicle: Klucel (hydroxypropylcellulose) (HPC)): 115 % of control
- T/C (dose: 100.0 mg/kg/injection, schedule: Q01DX009 (ip), vehicle: Klucel (hydroxypropylcellulose) (HPC)): 108 % of control

Structure (SMILES): Cc1ccc(O)c(O)c1
- T/C (dose: 25.0 mg/kg/injection, schedule: Q01DX009 (ip), vehicle: saline): 101 % of control

Structure (SMILES): Cc1ccc([N+]([O-])=NC#N)cc1
- T/C (dose: 7.5 mg/kg/injection, schedule: Q04DX003 (ip), vehicle: Klucel (hydroxypropylcellulose) (HPC)): 97 % of control
- T/C (dose: 15.0 mg/kg/injection, schedule: Q04DX003 (ip), vehicle: Klucel (hydroxypropylcellulose) (HPC)): 100 % of control
- T/C (dose: 30.0 mg/kg/injection, schedule: Q04DX003 (ip), vehicle: Klucel (hydroxypropylcellulose) (HPC)): 112 % of control

Structure (SMILES): c1cn2cnnc2n2cnnc12
- T/C (dose: 50.0 mg/kg/injection, schedule: Q01DX005 (ip), vehicle: saline with Tween-80): 100 % of control
- T/C (dose: 100.0 mg/kg/injection, schedule: Q01DX005 (ip), vehicle: saline with Tween-80): 105 % of control
- T/C (dose: 200.0 mg/kg/injection, schedule: Q01DX005 (ip), vehicle: saline with Tween-80): 97 % of control

Structure (SMILES): CSC(=S)n1nc(-c2ccccc2)c(N=Nc2cccc(C)c2C)c1-c1ccccc1
- T/C (dose: 100.0 mg/kg/injection, schedule: Q04DX002 (ip), vehicle: saline with Tween-80): 90 % of control
- T/C (dose: 200.0 mg/kg/injection, schedule: Q04DX002 (ip), vehicle: saline with Tween-80): 89 % of control
- T/C (dose: 400.0 mg/kg/injection, schedule: Q04DX002 (ip), vehicle: saline with Tween-80): 102 % of control

Structure (SMILES): O=[N+]([O-])c1cc(Cl)ccc1Cl
- T/C (dose: 50.0 mg/kg/injection, schedule: Q01DX009 (ip), vehicle: saline with Tween-80): 100 % of control
- T/C (dose: 100.0 mg/kg/injection, schedule: Q01DX009 (ip), vehicle: saline with Tween-80): 100 % of control
- T/C (dose: 200.0 mg/kg/injection, schedule: Q01DX009 (ip), vehicle: saline with Tween-80): 91 % of control

Structure (SMILES): COc1cc2c(cc1OC)C(c1ccccc1)ON(C)CC2 (configuration not stated)
- T/C [1]: 100 % of control
- T/C [2]: 99 % of control
- T/C [3]: 104 % of control

Structure (SMILES): COc1ccc(Cc2c3cc(OC)c(OC)cc3cc[n+]2CC(=O)c2ccc(Cl)cc2)cc1OC
- T/C [1]: 105 % of control
- T/C [2]: 111 % of control

Structure (SMILES): CC(=O)C1=C(N)C(C#N)=C(C)C(C)(O)C1 (configuration not stated)
- T/C (dose: 50.0 mg/kg/injection, schedule: Q01DX009 (ip), vehicle: saline + alcohol): 108 % of control
- T/C (dose: 100.0 mg/kg/injection, schedule: Q01DX009 (ip), vehicle: saline + alcohol): 90 % of control
- T/C (dose: 200.0 mg/kg/injection, schedule: Q01DX009 (ip), vehicle: saline + alcohol): 89 % of control

Structure (SMILES): O=C1CC(c2ccc(OCN(CCCl)CCCl)cc2)CC(=O)C1CN(CCCl)CCCl (configuration not stated)
- T/C (dose: 2.0 mg/kg/injection, schedule: Q01DX009 (ip), vehicle: Klucel (hydroxypropylcellulose) (HPC)): 117 % of control
- T/C (dose: 4.0 mg/kg/injection, schedule: Q01DX009 (ip), vehicle: Klucel (hydroxypropylcellulose) (HPC)): 160 % of control
- T/C (dose: 8.0 mg/kg/injection, schedule: Q01DX009 (ip), vehicle: Klucel (hydroxypropylcellulose) (HPC)): 153 % of control
- T/C (dose: 16.0 mg/kg/injection, schedule: Q01DX009 (ip), vehicle: Klucel (hydroxypropylcellulose) (HPC)): 166 % of control and 173 % of control
- T/C (dose: 32.0 mg/kg/injection, schedule: Q01DX009 (ip), vehicle: Klucel (hydroxypropylcellulose) (HPC)): 190 % of control
